# From patent EP4324461A1, “(E)-N-CINAMOYLAMINOALKANOLES WITH MELANOGENESIS INHIBITORY ACTIVITY” (UNIWERSYTET JAGIELLONSKI, priority 2022, dated 2024)
# How the values were obtained:
# [1] = molecular target: T1, tyrosinase released from B16-F10 cells (Mus musculus, UniProt P11344); assay: Inhibition of tyrosinase activity released from B16-F10 cells; type: cell-based, murine; details: α-MSH induced cells, lysate, L-DOPA 0.5 mM
# T1 construct: endogenous in cells; host or cells: B16-F10 murine melanoma cells, α-MSH stimulated, Triton X-100 lysate
# Procedure: 50,000 cells were placed in each well of a 24-well plate (in F10-Ham medium, 1% FBS). After 24 h of culture, the tested compounds were added in fresh medium (DMEM, 1% FBS), with an additional 5 µM of α-melanocorticotropic hormone (α-MSH) in the medium to induce melanogenesis. Three wells on the plate constituted a control sample without the melanogenesis inducer (α-MSH) and without the tested compounds. After 24 hours of incubation under these conditions, the medium was removed and the cells were washed twice with PBS. 100 µL of lysis buffer composed of 90 µL of 50 mM potassium phosphate buffer, 5 µL of 0.1 mM phenylmethylsulfonyl fluoride and 5 µL of 1% Triton X-100 were added to the wells. The plates were placed at -80 °C for 30 minutes. Cell lysates were then centrifuged for 30 min (4 °C, 12,000 rpm), and then 80 µL of the supernatant was transferred to 96-well plates. […] After a 30-minute incubation, the absorbance was measured at 475 nm using a microplate reader. The percentage of inhibition of tyrosinase activity was calculated using the formula: [(AC -AT)/AC] × 100, where AC - is the absorbance of the negative control (from wells in which cells were cultured without the tested compounds), AT - is the absorbance of the sample from wells in which cells were cultured in the presence of the test compound.
# Fibroblasts (BJ) = assay: Safety, LDH test in fibroblasts; type: cell-based; details: 48 hours, positive control Triton X-100
# Procedure: (§1) In order to test the safety of the compounds, both normal human cells were used: keratinocytes (HaCaT), fibroblasts (BJ), primary melanocytes that occur in the skin, as well as human cancer cells: the hepatocarcinoma line HepG2 and the neuroblastoma line SH-SY5Y, which are considered a model for the assessment of hepatocytotoxicity and neurocytotoxicity. The concentrations of the tested compounds in the range of 250-100 µM were used in the studies. The cell lines used in the research were purchased from the American Type Culture Collection (ATCC) and were cultured in media recommended by the manufacturer with the addition of FBS and antibiotics in an incubator ensuring appropriate culture conditions, i.e. humidity, temperature and CO2 concentration. Cells were seeded into multiwell plates and incubated with the test compounds for 48 hours. After this time, MTT and LDH tests were performed to assess cell viability. The MTT test is based on the ability to transform the substrate: [3-(4,5-dimethyl-2-thiazolyl)-2,5-diphenyl-2H-tetrazolium bromide into a colored product only by living cells. The absorbance at 570 nm, which corresponds to the absorption maximum for the product, is directly proportional to cell viability. The LDH test is based on testing the activity of the enzyme lactate dehydrogenase in the culture medium, which is released from cells as a result of damage to the cell membrane, e.g. as a result of cell death. Triton X-100 was used as a positive control in the test. The determination is colorimetric, the substrate is transformed by the released enzyme into a colored product, an increase in absorbance indicates a larger amount of the released enzyme, and thus confirms greater damage to cell membranes. Tables 7 and 8 present the results obtained, which correspond to the viability of cells incubated with the compounds in relation to the viability of cells constituting a control sample, i.e. incubated with the solvent (DMSO) at the same concentration as in the case of the groups tested in the MTT test or in relation to the results obtained for the Triton X-100 positive control in the LDH test. They indicate that the compounds are safe at the concentrations tested. Table 7. Viability of tested normal human cell lines: keratinocytes (HaCaT), fibroblasts (BJ) and primary melanocytes after incubation with the tested compounds - determination in the MTT test (% of solvent control ± SD) and LDH (percentage of positive control - Triton X-100.
# Primary melanocytes = assay: Safety, MTT test in primary melanocytes; type: cell-based; details: 48 hours
# Procedure: as §1
# Hepatocarcinoma HepG2 = assay: Safety, LDH test in HepG2; type: cell-based; details: 48 hours, positive control Triton X-100
# Procedure: as §1
# S. typhimurium TA100 = assay: Ames microplate test, TA100; type: cell-based, Salmonella typhimurium;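 further: reference level is the mean solvent-control yellow wells plus SD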
# Procedure: (§2) Bacteria were grown overnight in growth medium.
# (§3) Table 9. Ames microplate test results.
# S. typhimurium TA1537 = assay: Ames microplate test, TA1537; type: cell-based, Salmonella typhimurium;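 further: reference level is the mean solvent-control yellow wells plus SD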
# Procedure: as §2, §3
# [2] = test system: Balb/c 3T3 murine fibroblast cell line; assay: Phototoxicity in Balb/c 3T3 fibroblasts (neutral red uptake)
# Procedure: Balb/c 3T3 cells, which are an immortalized murine fibroblast cell line, were purchased at ATTC and cultured in the medium recommended by the manufacturer (DMEM GlutaMAX, newborn calf serum (BCS), antibiotics). After multiplication, cells were placed in 96-well plates, which were incubated for 24 hours, after which all wells of the plates were washed with 150 µL of balanced salt solution (HBSS). Then, after drying the plates, 100 µL of a solution of the tested compounds in HBSS with 2% FBS was added to each well and incubated for an hour. After this time, some of the plates were irradiated using the Suntest CPS+ sunlight simulator from Atlas with appropriate filters cutting off radiation with a wavelength <320 nm (UVA radiation intensity 5 J/cm^2). The second part of the plates was placed in radiation-free conditions for the same period of time. After the exposure time, the liquid was removed from all plates and the wells were washed twice with 150 µL of HBSS, then supplemented with fresh culture medium and incubated for 24 hours in an incubator (37 °C, 5% CO2). Viability was assessed in the neutral red uptake test, which is based on the ability of the dye to penetrate only into living cells. Dye uptake was confirmed by absorbance measurement at 540 nm. […] The appropriate coefficients were also calculated: mean phototoxic effect (MPE) and photoirritation factor (PIF). PIF is the ratio of the IC50 values of unirradiated to irradiated cells, while MPE is based on the comparison of concentration-response curves. […]
# T1 sequence (P11344 19-533): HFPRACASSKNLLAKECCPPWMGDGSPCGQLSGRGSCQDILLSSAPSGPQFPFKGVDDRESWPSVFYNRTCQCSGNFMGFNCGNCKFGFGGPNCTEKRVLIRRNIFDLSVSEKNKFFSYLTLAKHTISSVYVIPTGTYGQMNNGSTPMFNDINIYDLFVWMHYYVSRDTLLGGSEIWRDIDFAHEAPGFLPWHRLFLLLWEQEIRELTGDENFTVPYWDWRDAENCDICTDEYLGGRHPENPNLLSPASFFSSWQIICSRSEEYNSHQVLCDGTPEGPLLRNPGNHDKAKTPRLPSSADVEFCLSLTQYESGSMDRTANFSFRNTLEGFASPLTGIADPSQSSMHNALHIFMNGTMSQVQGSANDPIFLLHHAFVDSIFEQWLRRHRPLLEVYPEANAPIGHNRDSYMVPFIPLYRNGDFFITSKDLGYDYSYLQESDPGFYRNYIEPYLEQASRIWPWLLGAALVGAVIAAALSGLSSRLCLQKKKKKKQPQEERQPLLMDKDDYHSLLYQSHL
smiles,measurement,setting,value
"O=C(/C=C/c1ccc(Cl)cc1)NCCCCCO [Compound A-111, (2E)-3-(4-chlorophenyl)-N-(5-hydroxypentyl)prop-2-enamide]",inhibition of tyrosinase activity released from B16-F10 cells,[1],inhibit the activity of tyrosinase released from B16-F10 cells
same,Fibroblasts (BJ) LDH,Fibroblasts (BJ); 100 µM,5.25 percentage of positive control
same,Fibroblasts (BJ) LDH,Fibroblasts (BJ); 150 µM,5.37 percentage of positive control
same,Fibroblasts (BJ) LDH,Fibroblasts (BJ); 200 µM,8.43 percentage of positive control
same,Fibroblasts (BJ) LDH,Fibroblasts (BJ); 250 µM,14.90 percentage of positive control
same,Primary melanocytes MTT,Primary melanocytes; 100 µM,104.51±1.19 % of solvent control
same,Primary melanocytes MTT,Primary melanocytes; 150 µM,103.09±1.79 % of solvent control
same,Primary melanocytes MTT,Primary melanocytes; 200 µM,99.25±1.92 % of solvent control
same,Primary melanocytes MTT,Primary melanocytes; 250 µM,93.39±1.60 % of solvent control
same,Hepatocarcinoma HepG2 LDH,Hepatocarcinoma HepG2; 100 µM,4.90 percentage of positive control
same,Hepatocarcinoma HepG2 LDH,Hepatocarcinoma HepG2; 150 µM,4.73 percentage of positive control
same,Hepatocarcinoma HepG2 LDH,Hepatocarcinoma HepG2; 200 µM,5.48 percentage of positive control
same,Hepatocarcinoma HepG2 LDH,Hepatocarcinoma HepG2; 250 µM,9.75 percentage of positive control
same,Increase in the number of yellow wells compared to the reference level,"S. typhimurium TA100; 0.5 mM, +S9",0.97
same,Increase in the number of yellow wells compared to the reference level,"S. typhimurium TA100; 0.5 mM, without S9",0.74
same,Increase in the number of yellow wells compared to the reference level,"S. typhimurium TA100; 1.0 mM, +S9",0.47
same,Increase in the number of yellow wells compared to the reference level,"S. typhimurium TA100; 1.0 mM, without S9",0.39
same,Increase in the number of yellow wells compared to the reference level,"S. typhimurium TA100; 2.0 mM, +S9",0.67
same,Increase in the number of yellow wells compared to the reference level,"S. typhimurium TA100; 2.0 mM, without S9",0.42
same,Increase in the number of yellow wells compared to the reference level,"S. typhimurium TA1537; 0.5 mM, +S9",0.27
same,Increase in the number of yellow wells compared to the reference level,"S. typhimurium TA1537; 0.5 mM, without S9",0.80
same,Increase in the number of yellow wells compared to the reference level,"S. typhimurium TA1537; 1.0 mM, +S9",0.45
same,Increase in the number of yellow wells compared to the reference level,"S. typhimurium TA1537; 1.0 mM, without S9",0.54
same,Increase in the number of yellow wells compared to the reference level,"S. typhimurium TA1537; 2.0 mM, +S9",0.27
same,Increase in the number of yellow wells compared to the reference level,"S. typhimurium TA1537; 2.0 mM, without S9",0.54
same,phototoxic potential,"[2]; Balb/c 3T3, neutral red uptake",do not have phototoxic potential
same,PIF,[2]; photoirritation factor: ratio of IC50 of unirradiated to irradiated cells,No phototoxicity
same,cytotoxicity towards the mouse fibroblasts,[2]; with and without exposure to UVA,devoid of cytotoxicity
